# Data published in patent US9745288B2, “Compounds and methods for treating cancer by inhibiting the urokinase receptor” (Indiana University Research and Technology Corporation, priority 2011, dated 2017).
# What was measured:
# uPAR = molecular target: T1, uPAR (Homo sapiens, UniProt Q03405); assay: Fluorescence polarization assay, displacement of AE147-FAM peptide from uPAR; assay type: binding; conditions: Table 1, assay not stated; for Ki: read-out: Ki
# T1 construct: human uPAR (suPAR, amino acids 1-283) was expressed in stably transfected Drosophila S2 cells; made in house; host or cells: Drosophila S2 cells
# Protocol: Fluorescence Polarization Assay. The fluorescence polarization assay used fluorescent AE147-FAM peptide. uPAR was titrated against the fluorescent AE147-FAM peptide and data were fit to a sigmoidal dose-dependent curve as the FP value increases to determine the Kd of binding using Sigmaplot (Systat Software Inc., CA). Inhibitor screens were carried out in triplicates using 500 nM uPAR, 100 nM AE147-FAM, and inhibitor concentrations ranging from 0.78 μM to 100 μM in 50 μL volumes in black BD Falcon 384-well microplate. […] Polarized fluorescence intensities were measured immediately following addition of inhibitors to the protein-peptide mix at room temperature on an EnVision® Multilabel Plate Readers (PerkinElmer) with excitation and emission wavelengths of 485 nm and 530 nm, respectively.
# Cloning, Expression and Purification of uPAR. uPAR was successfully cloned, expressed and purified. From 1 L of culture, nearly 12 mg of protein was expressed, which will be sufficient to conduct the experiments disclosed herein. Briefly, a truncated, soluble form of human uPAR (suPAR, amino acids 1-283) was expressed in stably transfected Drosophila S2 cells using the Drosophila Expression System (Invitrogen). suPAR was obtained by a two-step purification process. The conditioned culture medium was filtered (0.45 μm) and loaded onto a DEAE Sephadex column equilibrated with 20 mM Tris (pH 7.4). The protein was eluted with a gradient of 0-1 M NaCl in 20 mM Tris (pH 7.4). suPAR containing fractions were then pooled, concentrated, and filtered prior to RP-HPLC using a semi-preparative (10×25 cm) C8 column. A 1 mL aliquot of the concentrated protein was loaded onto the column at initial gradient conditions of 95% eluent A and 5% eluent B, where eluent A was 0.1% TFA/100% H2O and eluent B was 70:30 acetonitrile/[…]. The protein elutes using a gradient of 5% eluent A to 95% eluent B over 46 minutes at a flow rate of 4 mL/min. Under these conditions, the protein eluted as a single sharp peak (tR=29 min). […] Surface plasmon resonance confirmed that the purified uPAR was capable of binding to uPA. The identity of the 60 kDa band was established by immunoblot (not shown).
# The design of a fluorescent probe was guided by the three-dimensional structure of uPAR in complex with peptide AE147.^27 As this peptide binds at the same site that is occupied by the growth factor-like domain of uPA, it provides the basis for the development of a competition assay to assess binding to this site. Flurescein was introduced to the N-terminus of AE147.
# All 210 compounds were screened at initial concentration of 50 μM for displacement of AE147-FAM peptide. Eleven compounds gave polarization readings that were five times that of the standard deviation of the control peptide (FIG. 1B). Secondary concentration-dependent study for these eleven compounds was performed.
# The resulting inhibition curves were used to determine an inhibition constant, Ki, for each.
# CYP2C9 = CYP2C9 (Homo sapiens, UniProt P11712); assay: Fluorescence-based CYP2C9 inhibition assay; conditions: 5 μM
# Protocol: CYP metabolism was measured using a fluorescence-based assay designed by Cohen et al.,^41 recently implemented by Invitrogen (Carlsbad, Calif.).
# MDA-MB-231 cells [1] = assay: Invasion assay (Boyden chamber, Matrigel); assay type: cell-based, human
# Protocol: Invasion and Migration Assays. These assays were performed using BD BioCoat Matrigel Invasion Chamber (Cat. 354480, BD Biosciences, Bedford, Mass.). The undersurface of the inserts was coated with 30 μg/mL of fibronectin (Sigma, F2006) in PBS at 4° C. overnight. The inserts were washed with PBS once. Then, 0.5 mL of serum-free medium was separately added to the upper and lower chambers to equilibrate the Matrigel invasion chambers at 37° C., 5% CO2 for 2 hours. After starvated with serumfree DMEM or 4 hours, subconfluent MDA-MB-231 cells were trypsinized and resuspended in 0.1% FBS DMEM. 5×10^4 cells in 500 μL of 0.1% FBS DMEM containing various compounds or 1.0% DMSO (as control) were added to the upper chambers. 500 μL of 10% FBS DMEM containing the same concentration of the same compound or DMSO were added to the lower chambers. We incubated the invasion chambers for 3 hours at 37° C., 5% CO2. Non-invaded cells were removed from the upper chamber with a cotton swab. The invaded cells were fixed with 100% methanol and then stained with Hematoxylin Stain Harris Modified Method (Fisher, SH30-500D). The filters were washed with water 3 times. Filters were air dried and the invaded cells were counted in ten randomly selected microscopic fields (×200 magnification). The experiment was performed in triplicate per group and shown by mean±SE.
# Whether the two active compounds affected invasion, adhesion and migration in cell culture in a concentration-dependent study was tested (FIGS. 2A, 2B). For invasion, the Transwell (or Boyden) chamber assay was used.^28 The assay uses a chamber with two compartments that are separated by a microporous membrane known as Matrigel consisting of components of the ECM such as collagen, laminin and fibronectin.^28
# Invasive tumor cells degrade the Matrigel and migrate through the membrane to the lower compartment. […] FIGS. 2A and 2B show the effect of representative presently disclosed compounds on MDA-MB-231 metastasis. Percent inhibition of invasion, migration, and adhesion of MDA-MB-231 by compounds that bind to uPAR.
# MDA-MB-231 cells [2] = assay: MTT proliferation assay; assay type: cell-based, human; conditions: MDA-MB-231
# Protocol: (§1) Proliferation Assay. The procedure consisted of culturing cells at 37° C. in 10% FBS-DMEM medium containing various amounts of compound. 5 mM compound stock in 100% DMSO was 1:50 diluted in medium, filtered, and serially diluted in 96-well plate. Then seeded cells were incubated for 3 days. Viable cells were quantified by MTT assay at absorbance of 570 and 630 nm.
# FIGS. 4A-4D show inhibition of MDA-MB-231 proliferation and mechanism of cell killing. To gain insight into the mechanism by which these compounds are inhibiting growth, a flow cytometry analysis with annexin V-FITC and PI staining was performed. The level of apoptotic cells in MDA-MB-231 was assessed by the percentage of Annexin V-positive/PI-negative cells present after exposure of MDAMB-231 cells to increasing concentration of IPR-69 for 24 h (FIG. 4B). At a concentration of 50 μM, IPR-69 induced significant apoptosis as evidenced by a 51% and 21% increase in apoptotic cells (Annexin V positive/PI-negative) and necrotic cells (Annexin V-positive/PI-positive), respectively. […] At a concentration of 50 μM, 26% of cells were necrotic (Annexin V positive/PI-positive), a 22% increase over control. 46% of cells were apoptotic (Annexin V positive/PInegative), compared with 4% of control.
# PANC-1 cells [3] = assay: PANC-1 invasion assay; assay type: cell-based, human
# [4] = test system: different signaling molecules; assay: Western blot analysis of signaling; assay type: cell-based; conditions: n=1
# Protocol: In light of the previously reported role of uPAR in signaling, the effect of IPR-993, IPR-737, IPR-81 and IPR-69 on signaling was studied by Western blot analysis (FIG. 23). A concentration-dependent study was carried out for IPR-737.
# MMP-9 = assay: Gelatin zymography of MDA-MB-231 conditioned medium; assay type: cell-based, human
# Protocol: Gelatin Zymography. MDA-MB-231 cells were treated with different concentrations of uPAR compounds in serum free medium for 24 h, the conditioned medium were collected, concentrated by Amicon Ultra centrifugal filter units (Millipore, #UFC500324), proteins were normalized and electrophoresed on sodium dodecyl sulfate (SDS)-polyacrylamide gels (10%) containing 1 mg/mL gelatin. After electrophoresis, the gel was washed twice in 50 mM Tris-HCl (pH 7.6) containing 5 mM CaCl2 and 2.5% Triton X-100 for 30 minutes at room temperature and incubated in buffer that contained 50 mM Tris-HCl (pH 7.6), 200 mM NaCl, 10 mM CaCl2 at 37° C. for 36 h. Then, the gels were stained with 0.05% Coomassie brilliant blue (CBB) and destained with 30% methanol in 10% acetic acid. Areas of gelatinolytic degradation appeared as transparent bands on the blue stained background of the gel. Data were quantified using Image J.
# To degrade collagen within the ECM, malignant cells unleash a series of extracelullar proteases known as matrix metalloproteinases (MMPs).
# MDA-MB-231 cells [5] = assay: Adhesion assay on fibronectin-coated wells; assay type: cell-based, human; conditions: MDA-MB-231
# Protocol: Adhesion Assay. Quantitative cell adhesion assays were carried out in nontissue culture treated 96-well microtiter plates (Evergreen Scientific, Los Angeles, Calif.) which were coated with 15 μg/mL fibronectin (Sigma) for 1 h at room temperature. Fibronectin coated and uncoated control wells were blocked for 1 h with 3% heat denatured bovine serum albumin (BSA) at 37° C. Cells were split one day prior to the experiment to achieve a subconfluent culture. […] The wells were washed and the number of adherent cells was quantified by crystal violet staining at 570 nm.^19,20 The results were shown by means±SE.
# PANC-1 cells [6] = assay: MTT assay; assay type: cell-based, human
# Protocol: as §1
# Some of the compounds of the presently disclosed subject matter were tested in a MTT assay using a human pancreas carcinoma cell line PANC-1 (FIG. 12A). […] One of these compounds, IPR-737, was further tested in a MTT assay using MDA-MB-231, AsPC-1 (human pancreas adenocarcinoma cell line), and PANC-1 cells.
# T1 sequence (Q03405 23-305): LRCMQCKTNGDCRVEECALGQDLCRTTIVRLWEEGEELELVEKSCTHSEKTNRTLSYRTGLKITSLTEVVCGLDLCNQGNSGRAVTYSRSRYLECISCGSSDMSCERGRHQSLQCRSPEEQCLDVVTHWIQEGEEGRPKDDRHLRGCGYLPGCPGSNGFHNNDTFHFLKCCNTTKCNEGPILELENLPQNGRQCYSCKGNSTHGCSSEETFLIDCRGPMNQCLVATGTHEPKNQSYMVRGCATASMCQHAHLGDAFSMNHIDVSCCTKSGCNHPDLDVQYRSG
# CYP2C9, sequence (P11712 whole entry): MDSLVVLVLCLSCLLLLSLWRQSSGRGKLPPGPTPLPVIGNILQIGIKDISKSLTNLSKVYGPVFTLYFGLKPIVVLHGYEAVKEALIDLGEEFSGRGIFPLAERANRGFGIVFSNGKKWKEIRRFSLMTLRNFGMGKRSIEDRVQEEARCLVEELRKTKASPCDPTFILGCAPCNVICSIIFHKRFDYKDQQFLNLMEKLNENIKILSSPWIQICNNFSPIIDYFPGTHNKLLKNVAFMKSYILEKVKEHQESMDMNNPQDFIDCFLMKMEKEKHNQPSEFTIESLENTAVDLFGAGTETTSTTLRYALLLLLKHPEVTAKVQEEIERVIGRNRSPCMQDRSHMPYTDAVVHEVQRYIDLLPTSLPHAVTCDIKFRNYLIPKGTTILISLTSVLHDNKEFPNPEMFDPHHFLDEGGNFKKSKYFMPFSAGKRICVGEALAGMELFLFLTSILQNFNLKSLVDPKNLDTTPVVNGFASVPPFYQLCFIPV
structure (smiles),measurement,setting,value
COc1ccc(N2C(=O)CCC(C(=O)Nc3ccc(OC)c(Cl)c3)C2c2ccc(OC)c(OC)c2)cc1 (stereo not drawn) [IPR-108],IC50,uPAR,42 µM
same,Ki,uPAR,12.8 µM
c1ccc(CNCCC(Cc2ccccc2)c2ccc3c(c2)OCO3)cc1 (stereo not drawn) [IPR-021],IC50,uPAR,58.7 µM
same,Ki,uPAR,17.9 µM
COc1ccccc1C(CCNCc1ccccc1)c1ccc2c(c1)OCO2 (stereo not drawn) [IPR-022],IC50,uPAR,24.2 µM
same,Ki,uPAR,7.3 µM
"Nc1ccc(S(=O)(=O)Nc2ccnn2-c2ccccc2)cc1 [sulphaphenazole, reference compound]",inhibition of CYP2C9,CYP2C9,approximately 69%
CCCCCCOc1cccc(N2C(=O)C(O)=C(C(=O)c3ccccc3)C2c2ccc(CC)cc2)c1 (stereo not drawn) [IPR-993],cell invasion,MDA-MB-231 cells [1],inhibition of activity with increasing concentrations of compound
same,"cell proliferation / viability (MTT, words)",MDA-MB-231 cells [2],inhibited cell viability
same,cell viability in the PANC-1 invasion assay,PANC-1 cells [3],little decrease in cell viability
same,PANC-1 invasion,PANC-1 cells [3]; increasing concentrations,inhibition of activity with increasing concentrations of compound
same,effect on signaling molecules,[4],did not seem to be much of an effect
same,MMP-9 activity in gelatin zymography,MMP-9,did not appear to demonstrate impairment of MMP-9 activity
same,cell adhesion,MDA-MB-231 cells [5],some activity
same,"cell proliferation / viability (MTT, words)",PANC-1 cells [6],inhibited cell viability
